In ChEMBL document CHEMBL1143858, “Structure-based design and synthesis of novel macrocyclic pyrazolo[1,5-a] [1,3,5]triazine compounds as potent inhibitors of protein kinase CK2 and their anticancer activities” (Bioorg Med Chem Lett, 2008):

Columns and labels:
HCT-116 = experiment: Inhibition of human HCT116 cells by MTT assay; format: functional, cell-based
[1] = target: Casein kinase II subunit alpha (Zea mays, UniProt P28523); experiment: Inhibition of corn CK2
PC-3 = experiment: Inhibition of human PC3 cells by MTT assay; format: functional, cell-based

Sequence of Casein kinase II subunit alpha (P28523 whole entry): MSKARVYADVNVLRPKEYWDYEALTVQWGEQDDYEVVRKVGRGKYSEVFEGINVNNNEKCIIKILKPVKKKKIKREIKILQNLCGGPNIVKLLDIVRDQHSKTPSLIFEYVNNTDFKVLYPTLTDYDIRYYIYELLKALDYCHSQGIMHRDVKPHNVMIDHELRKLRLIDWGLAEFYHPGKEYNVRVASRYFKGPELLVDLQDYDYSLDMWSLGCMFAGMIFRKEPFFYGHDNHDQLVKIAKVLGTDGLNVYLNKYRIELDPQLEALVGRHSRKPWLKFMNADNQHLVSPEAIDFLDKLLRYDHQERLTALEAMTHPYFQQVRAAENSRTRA

| Structure (SMILES) | IC50 (HCT-116; Homo sapiens, HCT-116) [nM] | Ki [1] [nM] | IC50 (PC-3; Homo sapiens, PC-3) [nM] | IC50 (HCT-116; hct-116) [nM] | IC50 (PC-3; pc-3) [nM] |
| --- | --- | --- | --- | --- | --- |
| O=C1CCCCc2cnn3c(Nc4cccc(C(=O)N5CC(O)C5)c4)nc(nc23)Nc2cccc(c2)N1 | 330 | 3.6 | 600 |  |  |
| CN(C)C1CCN(C(=O)c2cccc(Nc3nc4nc5c(cnn35)CCCCC(=O)Nc3cccc(c3)N4)c2)C1 (stereo unspecified) | 190 | 1.4 | 230 |  |  |
| CCN(CC)C1CCN(C(=O)c2cccc(Nc3nc4nc5c(cnn35)CCCCC(=O)Nc3cccc(c3)N4)c2)C1 (stereo unspecified) | 130 | 2.2 | 140 |  |  |
| CCN(CC)C1CN(C(=O)c2cccc(Nc3nc4nc5c(cnn35)CCCCC(=O)Nc3cccc(c3)N4)c2)C1 | 300 | 3.4 | 620 |  |  |
| CN1CCN(C(=O)c2cccc(Nc3nc4nc5c(cnn35)CCCCC(=O)Nc3cccc(c3)N4)c2)CC1 | 250 | 1.3 | 500 |  |  |
| CN1CCC(N(C)C(=O)c2cccc(Nc3nc4nc5c(cnn35)CCCCC(=O)Nc3cccc(c3)N4)c2)CC1 | 180 | 1.4 |  |  |  |
| CN1CC(NC(=O)c2cccc(Nc3nc4nc5c(cnn35)CCCCC(=O)Nc3cccc(c3)N4)c2)C1 | 270 | 7.4 | 330 |  |  |
| CC(=O)Nc1cccc(Nc2nc(NC3CC3)n3ncc(C#N)c3n2)c1 |  |  | 5100 |  |  |
| O=C1CCCCc2cnn3c(Nc4cccc(C(=O)N5CCNCC5)c4)nc(nc23)Nc2cccc(c2)N1 | 440 | 0.8 |  |  |  |
| CN1CCC(N(C)C(=O)c2cccc(Nc3nc4nc5c(cnn35)CCCCC(=O)Nc3cccc(c3)N4)c2)C1 (stereo unspecified) | 83 | 2 | 120 |  |  |
| CCN(CC)CCN(C)C(=O)c1cccc(Nc2nc3nc4c(cnn24)CCCCC(=O)Nc2cccc(c2)N3)c1 | 150 | 2.4 |  |  |  |
| CN(C)CCN(C)C(=O)c1cccc(Nc2nc3nc4c(cnn24)CCCCC(=O)Nc2cccc(c2)N3)c1 | 130 | 4 | 210 |  |  |
| CN(C)CCNC(=O)c1cccc(Nc2nc3nc4c(cnn24)CCCCC(=O)Nc2cccc(c2)N3)c1 | 240 | 5.2 | 380 |  |  |
| O=C1CCCCc2cnn3c(NC4CC4)nc(nc23)Nc2cccc(c2)N1 |  |  |  | 290 | 880 |
